Here are results for 15 compounds from patent US20250270445A1, “COMPOUNDS AND USES THEREOF IN FIELD OF OPTOELECTRONICS” (Zhejiang Brilliant Optoelectronic Technology Co.,Ltd., priority 2022, published 2025).

Structures are written as SMILES.

What all share (format): physicochemical
A short description of data set [1]: UV stability of compounds in toluene (absorbance decay to 80%). The following applies: 1×10^−5 mol/L in toluene, UV LEDs 365 nm & 255 nm, time to 80% absorbance, normalized to comparative compound 2 as 100%. On the procedure: The compound was dissolved in the toluene with a concentration of 1×10^−5 mol/L. 3 mL solution was added to the cuvette with a lid and the lid was screwed on tightly, then the cuvette was placed in the ultraviolet-visible spectrophotometer to test the absorption spectrum, the absorbance of the maximum absorption peak was recorded as the initial value. The cuvette was placed at a distance of 12 cm from the UV LEDs (365 nm & 255 nm), irradiated for a period and tested its absorption spectrum, then continued to be irradiated after the test, and repeated until the absorbance decayed to 80% of its initial value, the time was recorded as t80.

Data set [2] is described as follows: Absorption spectrum, emission spectrum and extinction coefficient in toluene solution. The following applies: for Molar extinction coefficient of the toluene solution: maximum absorption peak. On the procedure:
The extinction coefficients of the compounds and their absorption and emission spectrums in the solution were determined as follows: • 1. The compound with a certain amount of substance concentration in the toluene was prepared in a volumetric flask. • 2. The absorption spectrum of the solution was measured by using an ultraviolet-visible spectrophotometer (Puxi T9s) to obtain the absorption peak wavelength. • 3. The absorbance of the maximum absorption peak divided by the amount of substance concentration is the molar extinction coefficient of the compound. • 4. The emission spectrum of the solution was measured by using a fluorescent spectroscope (Hitachi, F-4700 FL Spectrophotometer) to obtain the emission peak wavelength.

Data set [3] is described as follows: Solubility of compounds in toluene. On the procedure:
The solubility of the compounds in the toluene were determined as follows: • 1. 1000 mg of toluene solution was placed in the transparent glass sample bottle. • 2. A certain mass of the compound was added into the toluene, and oscillated until completely dissolved. • 3. After the compound was completely dissolved, a certain mass of the compound was further added into the toluene, and oscillated. • 4. The above steps were repeated until the compound wasn't dissolved any more. • 5. The total mass of the compound added was recorded and the solubility was obtained by calculation.

A short description of data set [4]: Absorption and emission spectrum in spin-coated film. The following applies: for Absorption peak of the film / Emission peak of the film: spin-coated film. On the procedure:
The absorption and emission spectrums of the compounds in the film were determined as follows: • 1. The compound with a certain concentration in the toluene was prepared. • 2. The prepared toluene solution was dropped onto a clean glass substrate. • 3. Spin-coating, and then heating at the 80° C. for 1 min. • 4. The absorption spectrum of the film was measured by using an ultraviolet-visible spectrophotometer (Puxi T9s) to obtain the absorption peak wavelength. • 5. The emission spectrum of the film was measured by using a fluorescent spectroscope (Hitachi, F-4700 FL Spectrophotometer) to obtain the emission peak wavelength.

For `Cc1cccc(C)c1N(c1cc(C(C)(C)C)cc(C(C)(C)C)c1)c1cc(N(c2cc(C(C)(C)C)cc(C(C)(C)C)c2)c2c(C)cccc2C)c2ccc3c(N(c4cc(C(C)(C)C)cc(C(C)(C)C)c4)c4c(C)cccc4C)cc(N(c4cc(C(C)(C)C)cc(C(C)(C)C)c4)c4c(C)cccc4C)c4ccc1c2c43` [compound 5], the “Times t80” value in data set [1] was determined as 304%. Further, in data set [2], the “Absorption peak of the toluene solution” value is 477 nm, the “Emission peak of the toluene solution” value is recorded as 497 nm and the “Molar extinction coefficient of the toluene solution” value (“Molar extinction coefficient” for short) was 5.6 × 10^4 L · mo 1^−1. Besides, in data set [3], the “Solubilities(/100 g, toluene)” value was determined as 4.6 g/100 g toluene. Further, in data set [4], the “Absorption peak of the film” value came out at 476 nm and the “Emission peak of the film” value came out at 497 nm.

In the case of `c1ccc(N(c2ccc(-c3ccc(N(c4ccccc4)c4ccc5c(c4)c4ccccc4n5-c4ccccc4)cc3)cc2)c2ccc3c(c2)c2ccccc2n3-c2ccccc2)cc1` [comparative compound 2, reference compound], the “Times t80” value in data set [1] stood at 100%.

Take `CC(C)(C)c1ccc2c(c1)c1cc(C(C)(C)C)cc3c1n2-c1cc(-c2c(-c4ccccc4)cc(-c4ccccc4)cc2-c2ccccc2)cc2c1B3c1cc3c4ccccc4c4ccccc4c3c3c4c5c6ccccc6c6ccccc6c5ccc4n-2c13` [E3]: in data set [2], the “Absorption peak of the toluene solution” value is 512 nm, the “Emission peak of the toluene solution” value is 530 nm and the “Molar extinction coefficient” value was 6.6 × 10^4 L · mo 1^−1. The “Solubilities(/100 g, toluene)” value in data set [3] was above 0.7 g/100 g toluene.

As for `CCCCCCCCc1ccc(-c2cc(OC)ccc2N(c2cc(F)c(F)c(F)c2)c2cc(N(c3cc(F)c(F)c(F)c3)c3ccc(OC)cc3-c3ccc(CCCCCCCC)cc3)c3ccc4c(N(c5cc(F)c(F)c(F)c5)c5ccc(OC)cc5-c5ccc(CCCCCCCC)cc5)cc(N(c5cc(F)c(F)c(F)c5)c5ccc(OC)cc5-c5ccc(CCCCCCCC)cc5)c5ccc2c3c54)cc1` [compound 16], the “Times t80” value in data set [1] is recorded as 383%. Also, in data set [2], the “Absorption peak of the toluene solution” value was determined as 475 nm, the “Emission peak of the toluene solution” value is 496 nm and the “Molar extinction coefficient” value is on record as 7.0 × 10^4 L · mo 1^−1. The “Solubilities(/100 g, toluene)” value in data set [3] is listed as above 10 g/100 g toluene. Further, in data set [4], the “Absorption peak of the film” value was 476 nm and the “Emission peak of the film” value came out at 496 nm.

With `CC(C)c1cccc(C(C)C)c1N(c1cc(C(C)(C)C)cc(C(C)(C)C)c1)c1cc(N(c2cc(C(C)(C)C)cc(C(C)(C)C)c2)c2c(C(C)C)cccc2C(C)C)c2ccc3c(N(c4cc(C(C)(C)C)cc(C(C)(C)C)c4)c4c(C(C)C)cccc4C(C)C)cc(N(c4cc(C(C)(C)C)cc(C(C)(C)C)c4)c4c(C(C)C)cccc4C(C)C)c4ccc1c2c43` [compound 7], in data set [3], the “Solubilities(/100 g, toluene)” value was above 20 g/100 g toluene.

Take `CC(C)(C)c1ccc2c(c1)c1cc(C(C)(C)C)cc3c1n2-c1cccc2c1B3c1cc3c4ccccc4c4ccccc4c3c3c4c5c6ccccc6c6ccccc6c5ccc4n-2c13` [E2]: in data set [2], the “Absorption peak of the toluene solution” value is 507 nm, the “Emission peak of the toluene solution” value is 523 nm and the “Molar extinction coefficient” value was 4.8 × 10^4 L · mo 1^−1. In data set [3], the “Solubilities(/100 g, toluene)” value is recorded as above 0.7 g/100 g toluene.

For `CCCCCCC1(CCCCCC)c2ccccc2-c2ccc(-c3ccccc3-c3ccc4c5cccc6c(-c7ccccc7-c7ccc8c(c7)C(CCCCCC)(CCCCCC)c7ccccc7-8)ccc(c7cccc3c74)c65)cc21` [comparative compound 1, reference compound], in data set [2], the “Absorption peak of the toluene solution” value was found to be 461 nm, the “Emission peak of the toluene solution” value came out at 485 nm and the “Molar extinction coefficient” value is 4.3 × 10^4 L · mo 1^−1. Moreover, in data set [4] (film versus toluene solution), the “red shift of film spectrum versus solution spectrum” value is recorded as “large red shift”. Further, in data set [4], the “Absorption peak of the film” value is reported as 464 nm and the “Emission peak of the film” value is 543 nm.

Consider `CC(C)c1ccc(N(c2cc(F)c(F)c(F)c2)c2cc(N(c3cc(F)c(F)c(F)c3)c3ccc(C(C)C)cc3/C=C/c3ccc(C(C)(C)C)cc3)c3ccc4c(N(c5cc(F)c(F)c(F)c5)c5ccc(C(C)C)cc5/C=C/c5ccc(C(C)(C)C)cc5)cc(N(c5cc(F)c(F)c(F)c5)c5ccc(C(C)C)cc5/C=C/c5ccc(C(C)(C)C)cc5)c5ccc2c3c54)c(/C=C/c2ccc(C(C)(C)C)cc2)c1` [compound 19], for which, in data set [3], the “Solubilities(/100 g, toluene)” value is given as above 5 g/100 g toluene.

Turning to `CC(C)c1ccc(-c2cc(-c3cc(C(C)(C)C)cc(C(C)(C)C)c3)ccc2N(c2cc(F)c(F)c(F)c2)c2cc(N(c3cc(F)c(F)c(F)c3)c3ccc(-c4cc(C(C)(C)C)cc(C(C)(C)C)c4)cc3-c3ccc(C(C)C)cc3)c3ccc4c(N(c5cc(F)c(F)c(F)c5)c5ccc(-c6cc(C(C)(C)C)cc(C(C)(C)C)c6)cc5-c5ccc(C(C)C)cc5)cc(N(c5cc(F)c(F)c(F)c5)c5ccc(-c6cc(C(C)(C)C)cc(C(C)(C)C)c6)cc5-c5ccc(C(C)C)cc5)c5ccc2c3c54)cc1` [compound 14], in data set [2], the “Absorption peak of the toluene solution” value stood at 475 nm, the “Emission peak of the toluene solution” value was found to be 494 nm and the “Molar extinction coefficient” value is 5.1 × 10^4 L · mo 1^−1. For the same compound, in data set [3], the “Solubilities(/100 g, toluene)” value is listed as above 5 g/100 g toluene. In data set [4], the “Absorption peak of the film” value turned out to be 471 nm and the “Emission peak of the film” value was 493 nm.

As for `CCCCCCCCc1ccc(-c2c(N(c3cc(F)c(F)c(F)c3)c3cc(N(c4cc(F)c(F)c(F)c4)c4ccc5ccccc5c4-c4ccc(CCCCCCCC)cc4)c4ccc5c(N(c6cc(F)c(F)c(F)c6)c6ccc7ccccc7c6-c6ccc(CCCCCCCC)cc6)cc(N(c6cc(F)c(F)c(F)c6)c6ccc7ccccc7c6-c6ccc(CCCCCCCC)cc6)c6ccc3c4c65)ccc3ccccc23)cc1` [compound 17], in data set [2], the “Absorption peak of the toluene solution” value was found to be 475 nm, the “Emission peak of the toluene solution” value is 494 nm and the “Molar extinction coefficient” value is recorded as 5.8 × 10^4 L · mo 1^−1. For the same compound, in data set [3], the “Solubilities(/100 g, toluene)” value is above 4 g/100 g toluene. In data set [4], the “Absorption peak of the film” value was 476 nm and the “Emission peak of the film” value was determined as 497 nm.

Regarding `Cc1cccc(C)c1N(c1ccc(C(F)(F)F)cc1)c1cc(N(c2ccc(C(F)(F)F)cc2)c2c(C)cccc2C)c2ccc3c(N(c4ccc(C(F)(F)F)cc4)c4c(C)cccc4C)cc(N(c4ccc(C(F)(F)F)cc4)c4c(C)cccc4C)c4ccc1c2c43` [compound 12], the “Solubilities(/100 g, toluene)” value in data set [3] is recorded as above 4 g/100 g toluene.

As for `Cc1cc2ccccc2cc1N(c1ccc(C(C)(C)C)cc1)c1cc(N(c2ccc(C(C)(C)C)cc2)c2cc3ccccc3cc2C)c2ccc3c(N(c4ccc(C(C)(C)C)cc4)c4cc5ccccc5cc4C)cc(N(c4ccc(C(C)(C)C)cc4)c4cc5ccccc5cc4C)c4ccc1c2c43` [compound 10], the “Solubilities(/100 g, toluene)” value in data set [3] is above 2.5 g/100 g toluene.

In the case of `CC(C)c1cccc(C(C)C)c1N(c1ccc(C(C)(C)C)cc1)c1cc(N(c2ccc(C(C)(C)C)cc2)c2c(C(C)C)cccc2C(C)C)c2ccc3c(N(c4ccc(C(C)(C)C)cc4)c4c(C(C)C)cccc4C(C)C)cc(N(c4ccc(C(C)(C)C)cc4)c4c(C(C)C)cccc4C(C)C)c4ccc1c2c43` [compound 6], in data set [3], the “Solubilities(/100 g, toluene)” value is above 20 g/100 g toluene.

Turning to `Cc1cc2ccccc2c(C)c1N(c1ccc(C(C)(C)C)cc1)c1cc(N(c2ccc(C(C)(C)C)cc2)c2c(C)cc3ccccc3c2C)c2ccc3c(N(c4ccc(C(C)(C)C)cc4)c4c(C)cc5ccccc5c4C)cc(N(c4ccc(C(C)(C)C)cc4)c4c(C)cc5ccccc5c4C)c4ccc1c2c43` [compound 11], the “Solubilities(/100 g, toluene)” value in data set [3] is reported as above 2 g/100 g toluene.

Turning to `CCCCCCCCc1ccc(-c2cc(N(c3ccc(C(C)(C)C)cc3)c3ccc(C(C)(C)C)cc3)ccc2N(c2cc(F)c(F)c(F)c2)c2cc(N(c3cc(F)c(F)c(F)c3)c3ccc(N(c4ccc(C(C)(C)C)cc4)c4ccc(C(C)(C)C)cc4)cc3-c3ccc(CCCCCCCC)cc3)c3ccc4c(N(c5cc(F)c(F)c(F)c5)c5ccc(N(c6ccc(C(C)(C)C)cc6)c6ccc(C(C)(C)C)cc6)cc5-c5ccc(CCCCCCCC)cc5)cc(N(c5cc(F)c(F)c(F)c5)c5ccc(N(c6ccc(C(C)(C)C)cc6)c6ccc(C(C)(C)C)cc6)cc5-c5ccc(CCCCCCCC)cc5)c5ccc2c3c54)cc1` [compound 18], in data set [2], the “Absorption peak of the toluene solution” value is listed as 492 nm, the “Emission peak of the toluene solution” value is reported as 520 nm and the “Molar extinction coefficient” value is 5.1 × 10^4 L · mo 1^−1. The “Solubilities(/100 g, toluene)” value in data set [3] is reported as above 10 g/100 g toluene. In data set [4], the “Absorption peak of the film” value came out at 487 nm and the “Emission peak of the film” value is given as 518 nm.
